Laboratory results from US11046662B2, “2-aryl-4-hydroxy-1,3-thiazole derivatives useful as TRPM8-inhibitors in treatment of neuralgia, pain, COPD and asthma” (DOMPÉ FARMACEUTICI S.P.A., priority 2014, dated 2021).

Target: human TRPM8 (Homo sapiens (Human), UniProt Q7Z2W7)
Assay: HTS cellular-based calcium assay for human TRPM8 antagonists (FLIPR TETRA)
Conditions: HEK293/hTRPM8 cells, agonist Cooling Agent 10 at EC80, Ca2+ fluorescence

Chain of human TRPM8 (Q7Z2W7 whole entry): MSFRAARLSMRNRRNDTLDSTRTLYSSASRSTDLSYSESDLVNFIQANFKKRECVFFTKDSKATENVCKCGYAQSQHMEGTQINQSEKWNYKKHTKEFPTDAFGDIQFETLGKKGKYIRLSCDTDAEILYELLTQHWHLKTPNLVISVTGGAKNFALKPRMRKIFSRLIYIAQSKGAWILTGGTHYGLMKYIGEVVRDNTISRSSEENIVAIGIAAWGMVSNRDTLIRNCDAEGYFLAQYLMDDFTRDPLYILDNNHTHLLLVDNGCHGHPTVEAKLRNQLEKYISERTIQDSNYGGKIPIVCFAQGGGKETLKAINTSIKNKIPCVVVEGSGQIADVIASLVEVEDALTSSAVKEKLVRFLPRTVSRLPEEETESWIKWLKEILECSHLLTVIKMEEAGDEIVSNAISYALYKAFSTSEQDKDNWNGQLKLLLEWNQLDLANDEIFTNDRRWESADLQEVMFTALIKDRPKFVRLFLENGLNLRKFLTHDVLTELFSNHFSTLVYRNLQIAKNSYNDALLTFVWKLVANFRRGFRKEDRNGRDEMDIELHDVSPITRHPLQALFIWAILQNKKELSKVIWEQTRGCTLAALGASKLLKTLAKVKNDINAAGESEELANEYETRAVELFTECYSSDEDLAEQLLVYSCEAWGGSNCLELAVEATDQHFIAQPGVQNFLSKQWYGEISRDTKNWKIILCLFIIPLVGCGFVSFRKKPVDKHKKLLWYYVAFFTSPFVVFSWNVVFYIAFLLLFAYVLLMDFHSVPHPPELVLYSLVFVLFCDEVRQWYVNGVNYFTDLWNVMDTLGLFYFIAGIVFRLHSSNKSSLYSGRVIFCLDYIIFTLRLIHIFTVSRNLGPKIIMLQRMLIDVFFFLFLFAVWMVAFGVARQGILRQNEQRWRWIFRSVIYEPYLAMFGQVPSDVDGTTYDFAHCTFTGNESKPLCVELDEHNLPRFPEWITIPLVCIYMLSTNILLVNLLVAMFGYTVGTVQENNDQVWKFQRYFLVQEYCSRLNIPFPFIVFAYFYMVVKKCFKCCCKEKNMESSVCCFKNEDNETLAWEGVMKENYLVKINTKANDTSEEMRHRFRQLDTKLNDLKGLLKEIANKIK

Row | IC50 | SMILES
1 | 302 nM | CCC(=O)c1sc(-c2cnc[nH]2)nc1O [Compound 19, 1-[4-hydroxy-2-(1H-imidazol-5-yl)-1,3-thiazol-5-yl]propan-1-one]
2 | 596 nM | CCC(=O)c1sc(-c2cccs2)nc1O [Compound 7, 1-[4-hydroxy-2-(thiophen-2-yl)-1,3-thiazol-5-yl]propan-1-one]
3 | 435 nM | CON(C)C(=O)c1sc(-c2ccccc2Br)nc1O [Compound 10, 2-(2-bromophenyl)-4-hydroxy-N-methoxy-N-methyl-1,3-thiazole-5-carboxamide]
4 | 388 nM | CON(C)C(=S)c1sc(-c2cccc(F)c2)nc1O [Compound 41, 2-(3-fluorophenyl)-4-hydroxy-N-methoxy-N-methyl-1,3-thiazole-5-carbothioamide]
5 | 231 nM | CCC(=O)c1sc(-c2cccc(C)c2)nc1O [Compound 30, 1-[4-hydroxy-2-(3-methylphenyl)-1,3-thiazol-5-yl]propan-1-one]
6 | 123 nM | CCC(=O)c1sc(-c2ccno2)nc1O [Compound 24, 1-[4-hydroxy-2-(1,2-oxazol-5-yl)-1,3-thiazol-5-yl]propan-1-one]
7 | 912 nM | CCC(=O)c1sc(-c2ccccc2Br)nc1O [Compound 11, 1-[2-(2-bromophenyl)-4-hydroxy-1,3-thiazol-5-yl]propan-1-one]
8 | 236 nM | CCC(=S)c1sc(-c2cccc(F)c2)nc1O [Compound 40, 1-[2-(3-fluorophenyl)-4-hydroxy-1,3-thiazol-5-yl]propane-1-thione]
9 | 50 nM | CCC(=O)c1sc(-c2ccc(F)cc2)nc1O [Compound 36, 1-[2-(4-fluorophenyl)-4-hydroxy-1,3-thiazol-5-yl]propan-1-one]
10 | 85 nM | CC(C)CC(=O)c1sc(-c2cccs2)nc1O [Compound 22, 1-[4-hydroxy-2-(thiophen-2-yl)-1,3-thiazol-5-yl]-3-methylbutan-1-one]
11 | 299 nM | CC(C)C(=O)c1sc(-c2cccc(F)c2)nc1O [Compound 5, 1-[2-(3-fluorophenyl)-4-hydroxy-1,3-thiazol-5-yl]-2-methylpropan-1-one]
12 | 331 nM | CC(C)CC(=O)c1sc(-c2cccc(F)c2)nc1O [Compound 38, 1-[2-(3-fluorophenyl)-4-hydroxy-1,3-thiazol-5-yl]-3-methylbutan-1-one]
13 | 326 nM | CCC(=O)c1sc(-c2ccc(O)cc2)nc1O [Compound 29, 1-[4-hydroxy-2-(4-hydroxyphenyl)-1,3-thiazol-5-yl]propan-1-one]
14 | 523 nM | COCC(=O)c1sc(-c2cccc(F)c2)nc1O [Compound 39, 1-[2-(3-fluorophenyl)-4-hydroxy-1,3-thiazol-5-yl]-2-methoxyethanone]
15 | 64 nM | CCCC(=O)c1sc(-c2cccs2)nc1O [Compound 21, 1-[4-hydroxy-2-(thiophen-2-yl)-1,3-thiazol-5-yl]butan-1-one]
16 | 145 nM | CCC(=O)c1sc(-c2ccccn2)nc1O [Compound 27, 1-[4-hydroxy-2-(pyridin-2-yl)-1,3-thiazol-5-yl]propan-1-one]
17 | 453 nM | CCC(=O)c1sc(-c2ccncc2)nc1O [Compound 26, 1-[4-hydroxy-2-(pyridin-4-yl)-1,3-thiazol-5-yl]propan-1-one]
18 | 236 nM | CCC(=O)c1sc(-c2ccc(C)cc2)nc1O [Compound 31, 1-[4-hydroxy-2-(4-methylphenyl)-1,3-thiazol-5-yl]propan-1-one]
19 | 236 nM | CCC(=O)c1sc(-c2ccco2)nc1O [Compound 15, 1-[2-(furan-2-yl)-4-hydroxy-1,3-thiazol-5-yl]propan-1-one]
20 | 323 nM | CCC(=O)c1sc(-c2cccn2C)nc1O [Compound 17, 1-[4-hydroxy-2-(1-methyl-1H-pyrrol-2-yl)-1,3-thiazol-5-yl]propan-1-one]

Row | IC50 | SMILES
21 | 287 nM | O=C(c1sc(-c2cccc(F)c2)nc1O)C1CC1 [Compound 45, cyclopropyl[2-(3-fluorophenyl)-4-hydroxy-1,3-thiazol-5-yl]methanone]
22 | 233 nM | CCC(=O)c1sc(-c2cccc(NC)c2)nc1O [Compound 34, 1-{4-hydroxy-2-[3-(methylamino)phenyl]-1,3-thiazol-5-yl}propan-1-one]
23 | 450 nM | CCC(=O)c1sc(-c2cccc(N)c2)nc1O [Compound 32, 1-[2-(3-aminophenyl)-4-hydroxy-1,3-thiazol-5-yl]propan-1-one]
24 | 86 nM | CON(C)C(=O)c1sc(-c2ccccc2C)nc1O [Compound 8, 4-hydroxy-N-methoxy-N-methyl-2-(2-methylphenyl)-1,3-thiazole-5-carboxamide]
25 | 986 nM | CC/C(=N\OC)c1sc(-c2cccc(F)c2)nc1O [Compound 42, 2-(3-fluorophenyl)-5-[(1E)—N-methoxypropanimidoyl]-1,3-thiazol-4-ol]
26 | 89 nM | CCC(=O)c1sc(-c2cnn(C)c2)nc1O [Compound 20, 1-[4-hydroxy-2-(1-methyl-1H-pyrazol-4-yl)-1,3-thiazol-5-yl]propan-1-one]
27 | 1210 nM | CCC(=N)c1sc(-c2cccc(F)c2)nc1O [Compound 43, 2-(3-fluorophenyl)-5-propanimidoyl-1,3-thiazol-4-ol]
28 | 112 nM | CCC(=O)c1sc(-c2cncn2C)nc1O [Compound 18, 1-[4-hydroxy-2-(1-methyl-1H-imidazol-5-yl)-1,3-thiazol-5-yl]propan-1-one]
29 | 156 nM | CON(C)C(=O)c1sc(-c2cccs2)nc1O [Compound 6, 4-hydroxy-N-methoxy-N-methyl-2-(thiophen-2-yl)-1,3-thiazole-5-carboxamide]
30 | 99 nM | CCC(=O)c1sc(-c2ncon2)nc1O [Compound 23, 1-[4-hydroxy-2-(1,2,4-oxadiazol-3-yl)-1,3-thiazol-5-yl]propan-1-one]
31 | 1730 nM | CCC(=O)c1sc(-c2cccc(Br)c2)nc1O [Compound 14, 1-[2-(3-bromophenyl)-4-hydroxy-1,3-thiazol-5-yl]propan-1-one]
32 | 356 nM | CCC(=O)c1sc(-c2cccnc2)nc1O [Compound 25, 1-[4-hydroxy-2-(pyridin-3-yl)-1,3-thiazol-5-yl]propan-1-one]
33 | 958 nM | CC(=O)c1sc(-c2cccc(F)c2)nc1O [Compound 4, 1-(2-(3-fluorophenyl)-4-hydroxythiazol-5-yl)ethanone]
34 | 632 nM | CCC(=O)c1sc(-c2ccc(N)cc2)nc1O [Compound 33, 1-[2-(4-aminophenyl)-4-hydroxy-1,3-thiazol-5-yl]propan-1-one]
35 | 23 nM | CCC(=O)c1sc(-c2cccc(O)c2)nc1O [Compound 28, 1-[4-hydroxy-2-(3-hydroxyphenyl)-1,3-thiazol-5-yl]propan-1-one]
36 | 1360 nM | CC/C(=N\O)c1sc(-c2cccc(F)c2)nc1O [Compound 44, 2-(3-fluorophenyl)-5-[(1E)—N-hydroxypropanimidoyl]-1,3-thiazol-4-ol]
37 | 112 nM | CCC(=O)c1sc(-c2ccccc2O)nc1O [Compound 13, 1-[2-(2-hydroxyphenyl)-4-hydroxy-1,3-thiazol-5-yl]propan-1-one]
38 | 123 nM | CCC(=O)c1sc(-c2ccc[nH]2)nc1O [Compound 16, 1-[4-hydroxy-2-(1H-pyrrol-2-yl)-1,3-thiazol-5-yl]propan-1-one]
39 | 789 nM | CCC(=O)c1sc(-c2ccc(NC)cc2)nc1O [Compound 35, 1-{4-hydroxy-2-[4-(methylamino)phenyl]-1,3-thiazol-5-yl}propan-1-one]
40 | 411 nM | CCC(=O)c1sc(-c2ccccc2C)nc1O [Compound 9, 1-[4-hydroxy-2-(2-methylphenyl)-1,3-thiazol-5-yl]propan-1-one]

Row | SMILES | IC50
41 | CCC(=O)c1sc(-c2cccc(F)c2)nc1O [Compound 1, 1-[2-(3-fluorophenyl)-4-hydroxy-1,3-thiazol-5-yl]propan-1-one] | 32 nM
